Laboratory results taken from paper PMC11762167, “G Protein-Coupled Receptor 17 Inhibits Glucagon-like Peptide-1 Secretion via a Gi/o-Dependent Mechanism in Enteroendocrine Cells” (Biomolecules, 2024).
Starred links: 1 amine or outer side, 2 acyl side, 3 side chain; linkers in the order of their positions; H or OH if unused. Positions of bridges follow the written chain, without caps; N, C: chain ends. Non-standard residues stand in square brackets, D forms with d. Residues, ends and D or L forms follow the SMILES beside them. No end group written: not given here. X1 = CC(=O)NC(C(=O)OC(C(C)C)C(N[*:1])C(=O)[*:2])C(O)C(C)C; PhLac = O=C(O)[CH](O)Cc1ccccc1; NMeT = CN[CH](C(=O)O)[CH](C)O; NMeA = CN[CH](C)C(=O)O; NMeDha = C=C(NC)C(=O)O

Legend:
[1] = system: GLUTag cells; assay: GLP-1 secretion from control-transduced or untransduced GLUTag cells; type: cell-based, murine
Description: (§1) GLUTag cells were maintained in Dulbecco’s Modified Eagle Medium (DMEM) supplemented with 10% fetal bovine serum and 1% penicillin–streptomycin in a humidified incubator at 37 °C and 5% CO2. For adenovirus transduction, GLUTag cells were seeded into poly-D-lysine coated 96-well plates or 4-chamber slides. The next day, cells were transduced with adenoviruses (100–1250 viral particles per cell at time of seeding) as indicated. After 24–30 h, adenovirus-containing media was changed to serum-free growth media for overnight serum starvation. The following day, GLUTag cells were used for cAMP or calcium signaling assays, GLP-1 secretion assays, or immunostaining and imaging.
(§2) GLUTag cells were seeded into poly-D-lysine-coated 96-well plates and transduced with adenovirus as specified above and then tested for GLP-1 secretion. Medium was removed and cells were washed two times with GLP-1 secretion buffer (138 mM NaCl, 4.5 mM KCl, 4.2 mM NaHCO3, 2.5 mM CaCl2, 1.2 mM MgCl2, 10 mM HEPES, 1 mM glucose, and 0.1% bovine serum albumin, pH 7.4). Cells were stimulated for 2 h with indicated treatments diluted in GLP-1 secretion buffer for a total volume of 200 µL/well at 37 °C and 5% CO2. Plates were then centrifuged at 300× g for 1 min at 4 °C, and 75 µL of the supernatant was removed and frozen at −80 °C until subsequent GLP-1 quantification. Total GLP-1 was quantified using the Meso Scale Discovery Total GLP-1 V-PLEX kit (Rockville, MD, USA; K1503PD) according to manufacturer’s instructions. For PTX treatment conditions, cells were pretreated with 100 ng/mL PTX overnight. For experiments with YM-254890, cells were pretreated for 15 min at 37 °C and 5% CO2.

[2] = target: T1, hGPR17L (Homo sapiens, UniProt Q13304); assay: Endpoint cAMP (HTRF) in GLUTag cells expressing hGPR17L; type: cell-based; parameters: host or cells: GLUTag cells (murine enteroendocrine line), adenoviral transduction; settings: for Predicted (LS) mean diff.: Fig 2B, Forskolin, +Vehicle vs. +100 nM YM-254890
T1 sequence (Q13304 whole entry): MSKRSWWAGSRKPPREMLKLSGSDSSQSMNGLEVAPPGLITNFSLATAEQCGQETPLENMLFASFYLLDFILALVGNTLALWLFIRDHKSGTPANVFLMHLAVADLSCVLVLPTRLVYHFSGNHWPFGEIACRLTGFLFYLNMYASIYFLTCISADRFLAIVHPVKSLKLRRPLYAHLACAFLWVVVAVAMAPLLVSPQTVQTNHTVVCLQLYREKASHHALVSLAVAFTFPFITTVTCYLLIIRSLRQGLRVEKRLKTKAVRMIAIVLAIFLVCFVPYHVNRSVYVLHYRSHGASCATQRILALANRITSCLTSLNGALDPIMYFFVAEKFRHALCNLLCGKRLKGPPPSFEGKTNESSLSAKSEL
Description: as §1
Endpoint cAMP measurements were conducted as follows. GLUTag cells were seeded into poly-D-lysine-coated 96-well plates and transduced with adenovirus as specified above and then tested for cAMP signaling. Medium was removed and cells were washed with cAMP stimulation buffer (Hanks’ balanced salt solution (HBSS), 20 mM HEPES, pH 7.4) and then incubated in cAMP stimulation buffer for 30 min at 37 °C and 5% CO2. Cells were then treated for 30 min with agonist and forskolin in the presence of 500 µM IBMX at 37 °C and 5% CO2. Stimulation buffer was then decanted, and cAMP lysis buffer (50 mM HEPES, 10 mM CaCl2, 0.35% Triton X-100, and 500 µM IBMX) was added and shaken at 700 rpm for 1 h. Lysate was transferred to a 384-well plate, and the cAMP levels were quantified using the Cisbio HTRF cAMP (Gi kit; Revvity, Waltham, MA, USA) according to the manufacturer’s protocol.

[3] = target: T1, hGPR17L; assay: Calcium flux (Calcium 6) in GLUTag cells expressing hGPR17L; type: cell-based; parameters: host or cells: GLUTag cells (murine enteroendocrine line), adenoviral transduction
Description: as §1
GLUTag cells were seeded into black, clear bottom, poly-D-lysine-coated 96-well plates. Cells were transduced and serum starved as specified above. Growth medium was then replaced with 100 μL/well assay buffer (HBSS, 20 mM HEPES, pH 7.4) and 100 μL/well Calcium 6 loading dye (R8190; Molecular Devices, San Jose, CA, USA). During dye loading, cells were incubated at 37 °C and 5% CO2 for 2 h. MDL29,951 or KCl was added to the wells and fluorescence (485 nm excitation, 525 nm emission, and 515 nm automatic emission cutoff) was measured using a Molecular Devices FlexStation3 (Molecular Devices) at 37 °C. For experiments with PTX, cells were pretreated with 100 ng/mL PTX overnight and 100 ng/mL PTX was included with Calcium 6 loading dye for calcium flux assays. For experiments with YM-254890, cells were pretreated for 30 min at 37 °C.

[4] = target: T1, hGPR17L; assay: GLP-1 secretion from GLUTag cells expressing hGPR17L; type: cell-based; parameters: host or cells: GLUTag cells (murine enteroendocrine line), adenoviral transduction
Description: as §1, §2

C=C1C(=O)NC(C)C(=O)N(C)C(C)C(=O)NC(C(OC(=O)C(NC(C)=O)C(O)C(C)C)C(C)C)C(=O)N(C)C(C(C)OC)C(=O)OC(C)C(NC(C)=O)C(=O)OC(Cc2ccccc2)C(=O)N1C (centres unmarked) [YM-254890] (Ac-T[PhLac][NMeDha]A[NMeA][X1][NMeT](Me); ester 1-C; configuration not given here)
effect on F/I-stimulated GLP-1 secretion ([1]; 100 nM YM-254890, GLUTag cells): inhibited | effect on F/I-stimulated GLP-1 secretion ([1]; 3 µM YM-254890, control cells): strong inhibitory effects | effect on PMA-stimulated GLP-1 secretion ([1]; YM-254890 concentration–response, 300 nM PMA): no effect | effect on basal cAMP ([2]; 100 ng/mL PTX or 100 nM YM-254890, control- or hGPR17L-transduced): no effects | Predicted (LS) mean diff. ([2]; log [MDL29,951] (M) -4.0): 17.41 | Predicted (LS) mean diff. ([2]; log [MDL29,951] (M) -4.6): 19.49 | Predicted (LS) mean diff. ([2]; log [MDL29,951] (M) -5.2): 17.04 | Predicted (LS) mean diff. ([2]; log [MDL29,951] (M) -5.8): 11.34 | Predicted (LS) mean diff. ([2]; log [MDL29,951] (M) -6.4): 5.843 | Predicted (LS) mean diff. ([2]; log [MDL29,951] (M) -7.0): 2.922 | Predicted (LS) mean diff. ([2]; log [MDL29,951] (M) -7.6): 8.08 | Predicted (LS) mean diff. ([2]; log [MDL29,951] (M) -8.2): 13.01 | Predicted (LS) mean diff. ([2]; log [MDL29,951] (M) -8.8): 10.15 | Predicted (LS) mean diff. ([2]; log [MDL29,951] (M) -9.4): 6.783 | effect on 15 mM KCl-stimulated calcium mobilization ([3]; 100 ng/mL PTX or 100 nM YM-254890, Figure 2D): no effect | concentration giving robust inhibition of MDL29,951-stimulated calcium mobilization ([3]; 1 µM MDL29,951, concentration-response): ~ 100 nM | effect on 15 mM KCl-stimulated calcium flux ([3]; YM-254890 concentration-response, Figure S5D): no effect | effect on PMA-stimulated GLP-1 secretion ([4]; 100 nM YM-254890, 300 nM PMA, control or hGPR17L-expressing cells): no effect | effect on MDL29,951-mediated inhibition of PMA-stimulated GLP-1 secretion ([4]; 100 nM YM-254890, 100 µM MDL29,951, 300 nM PMA): no effect | effect on F/I-stimulated GLP-1 secretion ([4]; 3 µM YM-254890, hGPR17L-expressing cells): strong inhibitory effects

CCCCCCCCCCCCCC(=O)O[C@@H]1[C@@H](C)[C@@]2(O)[C@@H](C=C(CO)C[C@]3(O)C(=O)C(C)=C[C@@H]23)[C@@H]2C(C)(C)[C@]12OC(C)=O [PMA, phorbol 12-myristate 13-acetate]
increase in GLP-1 secretion ([1]; 300 nM PMA, control transduction condition): 4.14 ± 0.18 fold

Cc1onc(-c2ccccc2Cl)c1C(=O)N(C)c1ccc(Cl)cc1 [GPBAR-A]
increase in GLP-1 secretion ([1]; 10 µM GPBAR-A, control transduction condition): 2.67 ± 0.17 fold

CCCCC[C@H](O)/C=C/[C@H]1[C@H](O)CC(=O)[C@@H]1C/C=C\CCCC(=O)O [PGE2, prostaglandin E2]
increase in GLP-1 secretion ([1]; 300 nM PGE2, control transduction condition): 1.90 ± 0.06 fold | cAMP levels in response to PGE2 stimulation, % of the control-transduced cells ([2]; 300 nM PGE2, hGPR17L-expressing cells): 83 ± 5.5%

O=C(O)c1ccc(OCCCc2ccc(OCCCCOC3CCCCC3)cc2)c(C(=O)NC2CCCC(C(=O)O)C2)c1 (centres unmarked) [HAMI3379]
effect on MDL29,951-mediated inhibition of F/I-stimulated GLP-1 secretion ([4]; 10 µM HAMI3379): significantly attenuated

somatostatin (AGCKNFFWKTFTSC; ends and bridges not checked; cysteine pairing not given here; UniProt P61278 103-116, looked up) [SST, Endogenous somatostatin receptor agonist]
effect on F/I-stimulated GLP-1 secretion ([1]; 1 µM SST, control- and hGPR17L-transduced cells (Figure S4A,B)): inhibited
